Data as given in patent US20090264342A1, “COMPOSITIONS AND METHODS FOR ANTIBIOTIC POTENTIATION AND DRUG DISCOVERY” (priority 2006, published 2009).

Key:
[1] = target: T1, E. Coli RecA protein (Escherichia coli, UniProt P0A7G6); test: RecA ATPase activity, in vitro luciferase assay; type: biochemical; conditions: luciferase assay screen, FIG. 14
T1 construct: purchased New England Biolabs
Procedure: The assay measures the amount of ATPase (adenosine triphosphate (ATP)-adenosine diphosphate (ADP)) activity catalyzed by E. Coli RecA protein. In the assay, recA is incubated in reaction buffer with DNA, ATP and compounds of interest for a measured amount of time. The quantity of ATP remaining after the RecA reaction is quantitated using a subsequent luciferase assay. […] Details of the assay are provided below.
Materials. Kingase glo plus, adenosine triphosphate (ATP), Adenosine 5′-O-(3-thiotriphosphate), and 384 well plates, white were obtained from Fisher; and M13 mp18 Single-stranded DNA, RecA Protein and T4 Polynucleotide Kinase Reaction Buffer=PNK were obtained from New England Biolabs. PNK contained 70 mM Tris-CL pH 7.5, 10 mM MgCl2 and 5 mM DTT.
Assay Procedure. Final reaction mixture contains: 0.5 μL of M13 single stranded DNA (250 μg/mL); 1.0 μL of 10×PHK buffer; 0.25 μL of RecA (2 mg/mL); 0.25 μL of 1 mM ATP; 0.25 μL of test compound in DMSO; and […] of H2O.
Test compounds are incubated at room temperature in the presence of RecA protein and DNA prior to addition of ATP. This can be achieved by the preparation of two mixes, as indicated below. Desirably, both a no-DNA and a DNA/DMSO-only (i.e., no test compound) control were included.
The following steps are then performed: (1) Add 7.75 μL of mix 1 to the well of a 384 well plate; (2) Add 0.5 μL of the compound of interest; (3) Incubate at room temperature for 5 minutes; (4) Add 2.5 μL of the ATP mix. Incubate at room temperature for 30 minutes; (5) Add 12.5 μL of Promega Kinase glo plus; (6) Incubate at room temperature for 10 minutes or more; and (7) Measure luminescence of the reaction.
Tested compounds were obtained from Boston University (1205 compounds from CMLD diversity library, available from Dr. Scott Schauss), IndoFine (66 compounds based on flavone structure), ChemdiV (48 compounds known to be ATPase inhibitors and 720 compounds structurally related to CB101 (described, for example, in U.S. Ser. No. 60/662,038), and Asinex. Five (5) tested compounds were bisfiavones and 28 were predicted, based on structural modeling (see, for example, Example 31) to dock with Rec A. Many of the compounds are lipophilic, natural-product-like compounds. Others are flavones, bisflavones, flavonoids, coumarins, and/or heterocyclic compounds.
Percent inhibition is calculated according to the following equation: […]

[2] = test system: S. aureus cells; test: Mutation/resistance assay, resistance to ciprofloxacin; type: cell-based; conditions: 4×MIC ciprofloxacin with (+) or without (−) 25 μg/mL hinokiflavone
Procedure: This assay measures the rate at which mutant cells arise in the presence of an antibiotic agent. Cells are grown in the presence of antibiotic agent at a concentration above (generally well above, e.g., 4× or 8×) its MIC, and further in the presence or absence of a test agent (that may inhibit or enhance mutation).
Every 24 hours, an aliquot is removed from the culture and is diluted so that the antibiotic agent is no longer present at a concentration above its MIC (e.g., so that the antibiotic agent is present at 0.5×MIC or less). These aliquoted samples are then assayed to determine whether they can grow in the presence of the antibiotic agent. Specifically, when growth is observed in the presence of antibiotic agent at a concentration that is 4×MIC, then resistance is said to have developed. Test compounds can therefore be assayed to assess whether or not they can reduce the incidence of resistance (e.g., by inhibiting mutation).
These aliquoted samples were then assayed to determine whether they can grow in the presence of ciprofloxacin. […]

[3] = test system: wild type E. coli; test: Growth of wild type E. coli in the presence of quinolone (OD600); type: cell-based; conditions: 0.1 μg/mL of Cipro (sublethal concentration)
From the text: Each deletion strain was constructed by replacing the chromosomal copy of the relevant gene in a wild type E. coli strain (K-12) with a selectable antibiotic resistance gene, essentially as described, to create a precise gene deletion (Datsenko, K. A. and Wanner, B. L., “One-step inactivation of chromosomal genes in Escherichia coli K-12 using PCR products”, Proc Natl Acad Sci USA, 97, 6640-6645, […]); Baba, T., Ara, T., Okumura, Y., iki Hasegawa, M., Takai, Y., Baba, M., Oshima, T., Tomita, M., Wanner, B. and Mori, H. (2003) Systematic construction of single gene deletion mutants in Escherichia coli K-12 (in preparation) and see also the web site at ecoli.aist-nara.ac.jp/gb5/Resources/deletion/deletion.html).
For each mutant, the ratio of growth of the mutant in the presence of a sublethal concentration of quinolone to growth of the mutant in the absence of quinolone was calculated after 12 hours of growth at 37° C., based on OD600 measurements. […]

[4] = test system: strain E1; test: Potentiation of gentamicin by mefloquine (MBC, MIC); type: cell-based
From the text: Several aminoglycoside (gentamicin) potentiator target genes identified in Example 34 are ATP synthases.

[5] = test system: E. coli MG1655; test: Hydroxyl radical formation (HPF dye, flow cytometry) in E. coli; type: cell-based; conditions: E. coli; 250 ng/mL norfloxacin, 5 μg/mL ampicillin, 5 μg/mL kanamycin; bacteriostatic drugs; 3 hours after addition
Procedure: (§1) Growth Conditions. In the experiments, the growth and survival of untreated exponential phase E. coli, or S. aureus, were compared to cultured treated with antibiotics at the above concentrations. E. coli cultures were treated with norfloxacin, kanamycin, ampicillin, rifamycin SV, chloramphenical, tetracycline, erythromycin, or spectinomycin, where appropriate, S. aureus cultures were treated with norfloxacin, vancomycin or chloramphenical, where appropriate.
(§2) Hydroxyl radical and DNA damage sensor experiments using the flow cytometer. To monitor the occurrence of DNA damage, the engineered DNA damage sensor was used, which responds to auto-cleavage of LexA by activating expression of gfpmut3b. All the drug treatments and the no-drug controls were collected with both the kanamycin- and ampicillin-resistant version of the plasmid, with the exception of the ampicillin treatment (kanamycin plasmid only) and the kanamycin treatment (ampicillin plasmid only). All data were collected using a Becton Dickinson FACSCalibur flow cytometer (Becton Dickinson, San Jose, Calif.) with a 488-nm argon laser and a 515- to 545-nm emission filter (FL1) at low flow rate. The following PMT voltage settings were used: E00 (FSC), 360 (SSC) and 700 (FL1). To detect hydroxyl radical formation, the fluorescent reporter dye, 3′-(p-hydroxyphenyl) fluorescein (HPF, Invitrogen, Carlsbad, Calif.) was used at a concentration of 5 μM (1:1000) dilution), which is oxidized by hydroxyl radicals with high specificity. The following PMT voltage settings were used: E00 (FSC), 360 (SSC) and 825 (FL 1). Calibrite beads (Becton Dickinson) were used for instrument calibration.
Flow data were processed and analyzed with MATLAB (MathWorks, Natick, Mass.) to construct figures. At least 50,000 cells were collected for each sample. In all experiments, cells were grown as described above. Samples were taken immediately before addition of drug (time zero), then every hour for 3 hours. At each timepoint, approximately […] were collected, washed once and resuspended in filtered 1×PBS, pH 7.2 (Fisher Scientific), and fluorescence was measured on the flow cytometer.
In the present study, the Applicants chose to investigate whether hydroxyl radical formation also contributes to antibiotic-induced cell death in bacteria. Using the dye hydroxyphenyl fluorescein, HPF, which is oxidized by hydroxyl radicals with high specificity, hydroxyl radical formation was first observed over a range of hydrogen peroxide concentrations known to induce hydroxyl radicals through the reduction of hydrogen peroxide by ferrous iron. In this manner, it was possible to establish the scale of hydroxyl radical formation detectable using this dye via flow cytometry.

[6] = test system: wild-type strain of S. aureus; test: Hydroxyl radical formation (HPF dye, flow cytometry) in S. aureus; type: cell-based
Procedure: For work with S. aureus, a Staphylococcus aureus subspecies aureus Rosenback strain was used that was obtained from ATCC (29740).
as §1, §2

[7] = target: E. coli H+ATPase (Escherichia coli, UniProt P0AB98+P68699); conditions: cited from earlier work

T1 sequence (P0A7G6 2-353): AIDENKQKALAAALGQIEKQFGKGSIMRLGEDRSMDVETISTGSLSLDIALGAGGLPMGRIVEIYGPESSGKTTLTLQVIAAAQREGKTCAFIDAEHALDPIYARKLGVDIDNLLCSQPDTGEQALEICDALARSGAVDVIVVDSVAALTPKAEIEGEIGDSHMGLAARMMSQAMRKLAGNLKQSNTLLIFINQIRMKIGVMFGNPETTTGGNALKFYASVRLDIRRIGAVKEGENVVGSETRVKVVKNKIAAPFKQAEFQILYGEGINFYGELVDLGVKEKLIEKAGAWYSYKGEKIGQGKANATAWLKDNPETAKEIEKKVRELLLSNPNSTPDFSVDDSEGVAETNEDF

O=c1c(O)c(-c2ccc(O)cc2)oc2cc(O)ccc12 [3,7,4′-trihydroxyflavone]
activity as inhibitor of RecA ATPase (in words) [1]: particularly active

O=c1cc(-c2ccc(O)cc2)oc2cc(O)c(O)c(O)c12 [6-hydroxy-apigenin]
activity as inhibitor of RecA ATPase (in words) [1]: particularly active

O=C(O)c1cn(C2CC2)c2cc(N3CCNCC3)c(F)cc2c1=O [Cipro, ciprofloxacin]
Number of Wells in which Growth Observed in Presence of Ciprofloxacin at 4x MIC ([2]; culture grown 0 days): 0 | Number of Wells in which Growth Observed in Presence of Ciprofloxacin at 4x MIC ([2]; culture grown 1 day): 1 | Number of Wells in which Growth Observed in Presence of Ciprofloxacin at 4x MIC ([2]; culture grown 5 days): 2 | Number of Wells in which Growth Observed in Presence of Ciprofloxacin at 4x MIC ([2]; culture grown 6 days): 2 | Number of Wells in which Growth Observed in Presence of Ciprofloxacin at 4x MIC ([2]; culture grown 7 days): 3 | Number of Wells in which Growth Observed in Presence of Ciprofloxacin at 4x MIC ([2]; culture grown 10 days): 11 | growth of wild type E. coli in the presence of Cipro [3]: able to grow

OC(c1cc(C(F)(F)F)nc2c(C(F)(F)F)cccc12)C1CCCCN1 (centres unmarked) [Mefloquine]
reduction of the MBC of gentamicin ([4]; strain E1, Mefloquine 100 μg/mL): 6 fold | reduction of the MIC of gentamicin ([4]; strain E1, Mefloquine 500 μg/mL): 2 fold

O=c1cc(-c2ccc(O)cc2)oc2cc(O[C@@H]3O[C@H](CO)[C@@H](O)[C@H](O)[C@H]3O)cc(O)c12 [apigenin-7-O-glucoside]
activity as inhibitor of RecA ATPase (in words) [1]: particularly active

O=c1cc(-c2ccc(O)cc2)oc2cc(O)cc(O)c12 [apigenin]
activity as inhibitor of RecA ATPase (in words) [1]: particularly active

O=C(N[C@H](CO)[C@H](O)c1ccc([N+](=O)[O-])cc1)C(Cl)Cl [chloramphenicol]
hydroxyl radical formation [5]: did not stimulate hydroxyl radical production | hydroxyl radical formation ([6]; norfloxacin, chloramphenical): hydroxyl formation was not observed

CC[C@H]1OC(=O)[C@H](C)[C@@H](O[C@H]2C[C@@](C)(OC)[C@@H](O)[C@H](C)O2)[C@H](C)[C@@H](O[C@@H]2O[C@H](C)C[C@H](N(C)C)[C@H]2O)[C@](C)(O)C[C@@H](C)C(=O)[C@H](C)[C@@H](O)[C@]1(C)O [erythromycin]
hydroxyl radical formation [5]: did not stimulate hydroxyl radical production

O=c1c(O)c(-c2ccc(O)c(O)c2)oc2cc(O)ccc12 [fisetin]
activity as inhibitor of RecA ATPase (in words) [1]: particularly active

COc1cc(-c2oc3cc(O)cc(O)c3c(=O)c2O)ccc1O [isorhamnetin]
activity as inhibitor of RecA ATPase (in words) [1]: particularly active

O=c1c(O)c(-c2ccc(O)cc2)oc2cc(O)cc(O)c12 [kaempferol]
activity as inhibitor of RecA ATPase (in words) [1]: particularly active

O=C(c1ccc(O)c(O)c1)c1c(O)cc(O)cc1O [maclurin]
activity as inhibitor of RecA ATPase (in words) [1]: particularly active

O=c1c(O)c(-c2ccc(O)cc2O)oc2cc(O)cc(O)c12 [morin]
activity as inhibitor of RecA ATPase (in words) [1]: particularly active

CC[C@H]1/C=C/C=C/C[C@@H](C)[C@H](O)[C@@](C)(O)C(=O)[C@@H](C)[C@H](O)[C@@H](C)C(=O)[C@@H](C)[C@H](O)[C@@H](C)/C=C/C(=O)O[C@@H]2[C@H](C)[C@H](CC1)O[C@]1(CC[C@H](C)[C@H](C[C@@H](C)O)O1)[C@H]2C [oligomycin]
inhibition of ATP-driven proton transport and ATP hydrolysis [7]: weakly inhibited

O=c1c(O)c(-c2ccc(O)c(O)c2)oc2cc(O)c(O)c(O)c12 [quercetagetin]
activity as inhibitor of RecA ATPase (in words) [1]: particularly active

O.O.O=c1c(O)c(-c2ccc(O)c(O)c2)oc2cc(O)cc(O)c12 [quercetin dihydrate]
activity as inhibitor of RecA ATPase (in words) [1]: particularly active

CO[C@H]1/C=C/O[C@@]2(C)Oc3c(C)c([O-])c4c(O)c(cc(O)c4c3C2=O)NC(=O)/C(C)=C\C=C\[C@H](C)[C@H](O)[C@@H](C)[C@@H](O)[C@@H](C)[C@H](OC(C)=O)[C@@H]1C.[Na+] [rifamycin SV]
hydroxyl radical formation [5]: did not stimulate hydroxyl radical production

O=c1c(O)cc([C@H]2Oc3cc(O)cc(O)c3C[C@H]2O)cc2c([C@H]3Oc4cc(O)cc(O)c4C[C@H]3O)cc(O)c(O)c12 [theaflavin]
activity as inhibitor of RecA ATPase (in words) [1]: particularly active

CN[C@H](CC(C)C)C(=O)N[C@H]1C(=O)N[C@@H](CC(N)=O)C(=O)N[C@H]2C(=O)N[C@H]3C(=O)N[C@H](C(=O)N[C@H](C(=O)O)c4cc(O)cc(O)c4-c4cc3ccc4O)[C@H](O)c3ccc(c(Cl)c3)Oc3cc2cc(c3O[C@@H]2O[C@H](CO)[C@@H](O)[C@H](O)[C@H]2O[C@H]2C[C@](C)(N)[C@H](O)[C@H](C)O2)Oc2ccc(cc2Cl)[C@H]1O [vancomycin]
hydroxyl radical formation ([6]; lethal concentration (5 μg/mL)): increase in hydroxyl radical production | hydroxyl radical formation ([6]; sub-lethal concentration (1 μg/mL)): hydroxyl formation was not observed

venturicidin
inhibition of ATP-driven proton transport and ATP hydrolysis [7]: strongly inhibited
